“And” between values parts separate entries of the source, which are not always exact repeats. Identical values can stand only once.
What was measured:
P388 mouse leukemia [1] = assay: In vivo antitumor activity, i.p. implanted P388 mouse leukemia
Description: (§1) For in vivo evaluation of antitumor activity 1×10^6 P388 mouse leukemia cells were implanted in the intraperitoneal (i.p.) cavity or injected intravenously (i.v.) into (BALB/c ×DBA/2)F1 (CDF1) or (C57/BL6×DBA/2)F1 (BDF1) mice (Roseet al., 1983). Compound (1) was dissolved in DMSO and diluted with saline to the desired concentrations. Injection of Compound (1) was by the i.p. or i.v. route beginning on the first day after tumor implantation and consecutively every day for five treatments (qldX5:1). Increases in lifespan were reflected by the median survival time of treated (T) versus control (C) groups for which a % T/C was calculated. When antitumor activity was evaluated in M109 mouse lung .tumors, 0.2 ml of a 2.0% brei was implanted subcutaneously (s.c.) in CDF1 mice (Rose, 1981). The treatment schedule was one injection per day for days 4-8 after tumor implantation. Results are expressed as % T/C. Tumor growth inhibition was determined by calculating the relative median times for T and C mice to reach a 1 g size. Tumor weights were interchangeable with tumor size on the basis of 1 mm^3 =1 mg. The activity criterion for tumor growth inhibition (T-C) was approximately equal to a T-C of 4 days. Depending on the tumor volume doubling time for the M109 tumors in control mice, this amount of delay in tumor growth is consistent with about one log of cell kill. For both P388 and M109 tumor models, a T/C of […] was considered an active result.
(§2) Initial testing was done versus i.p. implanted P388 mouse leukemia. An optimal dose of 0.03 mg/kg/inj given i.p. produced a 50% increase in lifespan (150% T/C). In addition, Compound (1) was evaluated in two distal site models; i.v. implanted P388 or s.c. implanted M109 in which Compound (1) was given by i.v. injection.

P388 mouse leukemia [2] = assay: In vivo antitumor activity, i.v. implanted P388 mouse leukemia (distal site)
Description: as §1, §2

[3] = as above; conditions: mouse, in vivo, iv; P388 i.v.; qd 1-5, i.v.; read-out: maximum tolerated dose (MTD)
Description: as §1, §2

M109 mouse lung tumors = assay: In vivo antitumor activity, s.c. implanted M109 mouse lung tumor (distal site)
Description: as §1, §2

[4] = tested on: human colon carcinoma cell line HCT 116; assay: In vitro cytotoxicity assay (XTT); format: cell-based
Description: Cytotoxicity for the pure compound was assessed in several HCT116 cell lines by XTT (2,3-bis(2-methoxy-4-nitro-5-sulfophenyl)-5-[(phenylamino)carbonyl]-2H-tetrazolium hydroxide assay (Scudiero, 1988). Cells were seeded at 4000 cells/well in 96 well microtiter plates. 24 hrs later drugs were added and serial diluted. The cells were incubated at 37° C. for 72 hrs at which time the tetrazolium dye, XTT, was added. A dehydrogenase enzyme in live cells reduces the XTT to a form that absorbs light at 450 nm and which can be quantitated spectrophotometrically. The greater the absorbance the greater the number of live cells. The results are expressed as an IC50 which is the drug concentration required to inhibit cell proliferation (i.e. absorbance at 450 nm) to 50% of that of untreated control cells.

C=C1C(O)CC(=O)C(C)C=C(C)CC(O)C2(O)OC(CCC2O)CC2CCC(O2)C(CCCC)OC(=O)C(C)C(O)C2OC12 (stereo not shown) [Compound (1), caribenolide I]
optimal dose (OD) (P388 mouse leukemia [1]; P388 i.p., qd 1-5, i.p.): 0.03 mg/kg/inj and 0.030 mg/kg/inj
MST, % T/C (median survival time treated vs control) (P388 mouse leukemia [1]; ip, 0.03 mg/kg): 150%
increase in lifespan (P388 mouse leukemia [1]; ip, 0.03 mg/kg): 50%
increase in life span (in words) (P388 mouse leukemia [2]; P388 i.v., doses up to MTD 0.064 mg/kg/inj, i.v.): did not increase the life span
MST, % T/C (median survival time treated vs control) (P388 mouse leukemia [2]; iv, 0.064 mg/kg): 107%
MTD [3]: 0.064 mg/kg
MST, % T/C (median survival time treated vs control) (M109 mouse lung tumors; 0.060/0.120 mg/kg/inj, qd 4-8, i.v.): 128%
T-C (tumor growth delay) (M109 mouse lung tumors; 0.060/0.120 mg/kg/inj, qd 4-8, i.v., time to 1 g size): 1.3 days
distal site activity (in words) (M109 mouse lung tumors; i.v. dosing): no meaningful distal site activity
OD, first printed value (M109 mouse lung tumors; qd 4-8, i.v.): 0.060 mg/kg/inj
OD, second printed value (M109 mouse lung tumors; qd 4-8, i.v.): 0.120 mg/kg/inj
cytotoxicity in vitro (in words) [4]: potent cytotoxicity
IC50 ([4]; human colon carcinoma HCT 116, XTT, 72 hrs): 1.6 nM
